Experimental data as given in ChEMBL document CHEMBL3431459, “Roche carnitine palmitoyltransferase modulator screening data (supplementary data associated with the publication CHEMBL2216752)”.
In brackets after ≈: the same amount, converted by molar mass.

Columns and labels:
[1] = target: T1, Carnitine O-palmitoyltransferase 1, muscle isoform (Homo sapiens, UniProt Q92523); assay: SUPPLEMENTARY: Inhibition of Carnitine palmitoyltransferase 1, muscle isoform; set-up: species or system Muscle tissue
T1 sequence (Q92523 whole entry): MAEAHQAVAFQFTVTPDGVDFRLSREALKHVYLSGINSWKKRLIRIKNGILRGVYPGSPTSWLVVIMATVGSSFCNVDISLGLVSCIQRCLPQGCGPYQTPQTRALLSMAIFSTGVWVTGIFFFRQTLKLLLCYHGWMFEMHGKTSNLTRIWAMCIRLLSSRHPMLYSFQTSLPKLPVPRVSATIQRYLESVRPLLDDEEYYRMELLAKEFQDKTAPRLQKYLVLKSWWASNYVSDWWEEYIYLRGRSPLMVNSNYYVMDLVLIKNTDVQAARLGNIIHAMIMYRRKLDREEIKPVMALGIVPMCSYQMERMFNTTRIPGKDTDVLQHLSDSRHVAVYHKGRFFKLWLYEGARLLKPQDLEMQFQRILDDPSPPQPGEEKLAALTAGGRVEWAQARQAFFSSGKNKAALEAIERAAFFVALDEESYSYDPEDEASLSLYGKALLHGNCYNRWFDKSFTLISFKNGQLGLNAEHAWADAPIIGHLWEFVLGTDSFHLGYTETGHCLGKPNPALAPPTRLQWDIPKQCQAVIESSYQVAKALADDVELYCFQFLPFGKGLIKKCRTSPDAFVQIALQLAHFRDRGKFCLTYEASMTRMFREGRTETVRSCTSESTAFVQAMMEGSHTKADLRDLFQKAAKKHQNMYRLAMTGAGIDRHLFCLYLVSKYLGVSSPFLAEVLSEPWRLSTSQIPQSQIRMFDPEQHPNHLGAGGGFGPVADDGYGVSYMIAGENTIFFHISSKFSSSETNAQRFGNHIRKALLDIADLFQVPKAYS

[2] = target: T2, Carnitine O-palmitoyltransferase 2, mitochondrial (Homo sapiens, UniProt P23786); assay: (§1) SUPPLEMENTARY: Inhibition of Carnitine palmitoyltransferase 2
T2 sequence (P23786 whole entry): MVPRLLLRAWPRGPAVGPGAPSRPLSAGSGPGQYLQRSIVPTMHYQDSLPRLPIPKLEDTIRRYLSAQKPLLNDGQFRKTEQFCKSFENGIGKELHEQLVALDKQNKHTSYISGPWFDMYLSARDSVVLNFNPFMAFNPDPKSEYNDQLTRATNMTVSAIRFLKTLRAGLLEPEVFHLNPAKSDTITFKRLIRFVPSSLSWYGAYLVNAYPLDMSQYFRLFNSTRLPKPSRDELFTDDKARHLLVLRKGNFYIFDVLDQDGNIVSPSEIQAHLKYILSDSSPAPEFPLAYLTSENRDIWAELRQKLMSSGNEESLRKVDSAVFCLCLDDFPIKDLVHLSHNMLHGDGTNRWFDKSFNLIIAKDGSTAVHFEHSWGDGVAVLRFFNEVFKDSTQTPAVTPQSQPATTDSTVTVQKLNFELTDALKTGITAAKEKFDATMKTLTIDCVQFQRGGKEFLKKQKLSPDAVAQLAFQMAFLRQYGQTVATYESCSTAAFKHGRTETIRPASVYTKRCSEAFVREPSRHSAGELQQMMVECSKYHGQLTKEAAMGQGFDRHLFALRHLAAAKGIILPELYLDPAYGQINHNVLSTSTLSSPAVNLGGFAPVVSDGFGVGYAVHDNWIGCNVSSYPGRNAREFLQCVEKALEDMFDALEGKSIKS

[3] = target: T3, Carnitine O-palmitoyltransferase 2, mitochondrial (Rattus norvegicus, UniProt P18886); assay: as §1
T3 sequence (P18886 whole entry): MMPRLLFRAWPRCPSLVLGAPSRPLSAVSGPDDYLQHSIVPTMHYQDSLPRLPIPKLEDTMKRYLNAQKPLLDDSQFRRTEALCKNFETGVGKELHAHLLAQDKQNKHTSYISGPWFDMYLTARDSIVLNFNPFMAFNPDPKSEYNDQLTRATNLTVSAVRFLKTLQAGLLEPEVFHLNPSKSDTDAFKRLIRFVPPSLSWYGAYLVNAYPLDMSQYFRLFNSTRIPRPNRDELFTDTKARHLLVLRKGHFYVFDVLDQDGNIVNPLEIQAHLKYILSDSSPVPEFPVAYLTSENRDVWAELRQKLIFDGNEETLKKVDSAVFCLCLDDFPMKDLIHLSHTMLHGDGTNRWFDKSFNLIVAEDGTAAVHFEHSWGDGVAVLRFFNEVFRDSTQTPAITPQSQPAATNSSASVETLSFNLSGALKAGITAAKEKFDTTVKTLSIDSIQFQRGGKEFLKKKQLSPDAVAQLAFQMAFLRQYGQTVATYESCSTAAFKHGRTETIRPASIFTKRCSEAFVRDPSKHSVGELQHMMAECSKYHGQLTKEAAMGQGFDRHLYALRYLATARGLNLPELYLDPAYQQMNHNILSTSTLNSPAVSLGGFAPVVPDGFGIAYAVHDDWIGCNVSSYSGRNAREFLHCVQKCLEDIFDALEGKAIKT

[4] = target: T4, Carnitine O-palmitoyltransferase 1, liver isoform (Homo sapiens, UniProt P50416); assay: (§2) SUPPLEMENTARY: Inhibition of Carnitine palmitoyltransferase 1, liver isoform
T4 sequence (P50416 whole entry): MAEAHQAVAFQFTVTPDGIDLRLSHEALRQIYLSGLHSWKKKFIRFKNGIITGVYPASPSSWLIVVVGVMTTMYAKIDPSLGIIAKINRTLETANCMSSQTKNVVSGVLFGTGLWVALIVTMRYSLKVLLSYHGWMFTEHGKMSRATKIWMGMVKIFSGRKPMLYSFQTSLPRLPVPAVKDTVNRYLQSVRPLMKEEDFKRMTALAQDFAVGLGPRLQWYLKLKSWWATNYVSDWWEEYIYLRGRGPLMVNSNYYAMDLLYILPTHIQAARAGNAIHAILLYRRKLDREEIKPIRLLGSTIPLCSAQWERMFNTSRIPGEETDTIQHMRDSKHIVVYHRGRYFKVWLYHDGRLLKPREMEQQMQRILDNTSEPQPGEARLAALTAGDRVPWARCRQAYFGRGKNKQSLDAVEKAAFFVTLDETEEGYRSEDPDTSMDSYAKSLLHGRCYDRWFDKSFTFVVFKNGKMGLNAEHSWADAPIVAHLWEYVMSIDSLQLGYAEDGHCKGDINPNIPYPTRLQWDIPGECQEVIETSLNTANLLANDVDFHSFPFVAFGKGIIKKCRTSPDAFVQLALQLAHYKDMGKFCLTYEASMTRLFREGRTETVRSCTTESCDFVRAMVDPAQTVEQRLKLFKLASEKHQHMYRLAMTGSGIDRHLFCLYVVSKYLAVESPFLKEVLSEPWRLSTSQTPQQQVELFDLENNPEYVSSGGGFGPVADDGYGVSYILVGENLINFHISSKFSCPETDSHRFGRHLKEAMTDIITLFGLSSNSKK

[5] = target: T5, Carnitine O-palmitoyltransferase 1, liver isoform (Rattus norvegicus, UniProt P32198); assay: as §2
T5 sequence (P32198 whole entry): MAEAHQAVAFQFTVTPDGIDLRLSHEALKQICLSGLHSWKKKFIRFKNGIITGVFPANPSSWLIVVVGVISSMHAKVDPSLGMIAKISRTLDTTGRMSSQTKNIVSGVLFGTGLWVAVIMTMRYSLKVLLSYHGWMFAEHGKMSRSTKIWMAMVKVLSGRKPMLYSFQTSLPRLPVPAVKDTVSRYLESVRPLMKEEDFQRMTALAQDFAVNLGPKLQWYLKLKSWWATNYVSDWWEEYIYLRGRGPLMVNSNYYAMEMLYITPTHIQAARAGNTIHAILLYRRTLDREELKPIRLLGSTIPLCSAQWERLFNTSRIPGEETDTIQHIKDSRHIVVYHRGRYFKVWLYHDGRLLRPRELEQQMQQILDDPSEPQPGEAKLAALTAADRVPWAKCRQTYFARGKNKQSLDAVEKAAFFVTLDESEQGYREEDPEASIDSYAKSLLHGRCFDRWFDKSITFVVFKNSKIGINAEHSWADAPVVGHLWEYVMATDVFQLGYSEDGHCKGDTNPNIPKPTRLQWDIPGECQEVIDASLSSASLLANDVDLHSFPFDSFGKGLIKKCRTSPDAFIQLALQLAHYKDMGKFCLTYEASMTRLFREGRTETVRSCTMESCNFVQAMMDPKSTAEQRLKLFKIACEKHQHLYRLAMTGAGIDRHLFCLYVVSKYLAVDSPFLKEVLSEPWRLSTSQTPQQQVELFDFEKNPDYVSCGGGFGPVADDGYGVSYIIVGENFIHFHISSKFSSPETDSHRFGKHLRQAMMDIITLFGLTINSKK

[6] = SUPPLEMENTARY: Lyophilisation Solubility Assay (LYSA); type: physicochemical; conditions: read-out: Kinetic_solubility
[7] = SUPPLEMENTARY: Lipophilicity (log D) Determination by high-throughput shake-flask; type: physicochemical; conditions: octanol/water
[8] = SUPPLEMENTARY: PAMPA permeability assay; type: physicochemical; conditions: read-out: Permeability

IC50 [1] [nM] | IC50 [2] [nM] | IC50 [3] [nM] | IC50 [4] [nM] | IC50 [5] [nM] | solubility kinetic [6] [µg/mL] | logD [7] | Papp [8] [×10⁻⁶ cm/s] | Compound
1430 | > 100000 | > 100000 | 41.6 | 38.6 | 31 (≈ 59.2 µM) | 0.05 | 2.18 | COc1ccc(Cl)cc1S(=O)(=O)N1CCOc2ccc(C(=O)Nc3ncc(CC(=O)O)s3)cc21
7620 | 6260 | 7630 | 99.8 | 93.1 | 46 (≈ 110 µM) | 2.53 | 6.44 | O=C(COc1ccccc1)N1CCCC[C@@H]1c1noc(-c2cccc3[nH][nH]c(=O)c23)n1
80800 | 18000 | > 100000 | 55.7 | 69.4 | 10 (≈ 23 µM) | 3.04 | 3.91 | O=C1COc2ccc(-c3noc([C@H]4CCCCN4C(=O)COc4ccccc4)n3)cc2N1
30300 | 53000 | > 100000 | 92.3 | 118 | 402 (≈ 921 µM) | 0.73 | 6.19 | Cc1sc([C@H]2CCCCN2C(=O)COc2ccccc2)nc1-c1cccc(C(=O)O)c1
> 100000 | > 100000 | > 100000 | 59.7 | 59.8 | < 1 | 2.82 | 24.5 | O=C(COc1ccccc1)N1CCCC[C@@H]1c1nc(-c2cccc(N3CCCS3(=O)=O)c2)no1

Continued, molecule first:

Compound | IC50 [1] [nM] | IC50 [2] [nM] | IC50 [3] [nM] | IC50 [4] [nM] | IC50 [5] [nM] | solubility kinetic [6] [µg/mL] | logD [7] | Papp [8] [×10⁻⁶ cm/s]
COc1ccc(Cl)cc1S(=O)(=O)N1CCOc2ccc(C(=O)Nc3ccc(C(=O)O)c(F)c3)cc21 | 1800 | 6300 | 23400 | 65.1 | 80.5 | 15 (≈ 28.8 µM) | 0.29 | 1.71
O=C(COc1ccccc1)N1CCCC[C@@H]1c1noc(-c2cccc(-n3cn[nH]c3=O)c2)n1 | > 100000 | 12000 | > 100000 | 59.1 | 334 | 48 (≈ 108 µM) | 2.35 | 3.47
COc1ccc(Cl)cc1S(=O)(=O)N1CCOc2c(F)cc(C(=O)Nc3ccc(CC(=O)O)cc3)cc21 | 750 | > 100000 | > 100000 | 150 | 84.7 | 565 (≈ 1060 µM) | 0.47 | 2.79
CN1CCN(C(=O)COc2ccccc2)[C@@H](c2nc(-c3ccc4c(c3)CC(=O)N4)no2)C1 | > 100000 | 16500 | 35000 | 137 | 305 | 73 (≈ 168 µM) | 1.91 | 3.38
O=C(Nc1ccc(-c2nnn[nH]2)cc1)c1nn(Cc2ccc(OC(F)F)cc2)c2ccc(F)cc12 | 26800 | > 100000 | > 100000 | 210 | 2870 | 1 (≈ 2.09 µM) | > 3 | 0.46
COc1ccc(Cl)cc1CN1C(=O)OC(C)(C)c2ccc(C(=O)Nc3ccc(CC(=O)O)cc3)cc21 | 2330 | > 100000 | > 100000 | 147 | 41.9 | 26 (≈ 51.1 µM) | 0.51 | 1.71
O=C(COc1ccccc1)N1CCCC[C@@H]1c1noc(-c2ccc3[nH]nnc3c2)n1 | > 100000 | > 100000 | > 100000 | 79.4 | 916 | 46.5 (≈ 115 µM) | 2.22 | 2.14
CC(=O)Nc1cccc(-c2n[nH]c([C@H]3CCCCN3C(=O)COc3ccccc3)n2)c1 | > 100000 | 98300 | > 100000 | 53.7 | 340 | 136 (≈ 324 µM) | 2.61 | 2.88
N#Cc1cccc(-c2nc([C@H]3CCCCN3C(=O)COc3ccccc3)no2)c1 | > 100000 | 15600 | > 100000 | 84.8 | 412 | < 1 | 3.17 | 3.83
